Experimental data reported in US20060135480A1, “Derivatives of succinic and glutaric acids and analogs thereof useful as inhibitors of phex” (Enobia Pharma, priority 2002, published 2006).

molecular target: T1, sPHEX (Homo sapiens, UniProt P78562); experiment: sPHEX inhibitor IC50 determination using a fluorogenic substrate (Abz-GFSDYK-Dnp, S3); type: biochemical; settings: fluorogenic substrate 20 μM, 100 ng sPHEX, pH 6.5
T1 construct: The soluble form of the metallopeptidase PHEX (sPHEX) was purified to homogeneity; made in house
T1 sequence (P78562 53-749 limits assumed): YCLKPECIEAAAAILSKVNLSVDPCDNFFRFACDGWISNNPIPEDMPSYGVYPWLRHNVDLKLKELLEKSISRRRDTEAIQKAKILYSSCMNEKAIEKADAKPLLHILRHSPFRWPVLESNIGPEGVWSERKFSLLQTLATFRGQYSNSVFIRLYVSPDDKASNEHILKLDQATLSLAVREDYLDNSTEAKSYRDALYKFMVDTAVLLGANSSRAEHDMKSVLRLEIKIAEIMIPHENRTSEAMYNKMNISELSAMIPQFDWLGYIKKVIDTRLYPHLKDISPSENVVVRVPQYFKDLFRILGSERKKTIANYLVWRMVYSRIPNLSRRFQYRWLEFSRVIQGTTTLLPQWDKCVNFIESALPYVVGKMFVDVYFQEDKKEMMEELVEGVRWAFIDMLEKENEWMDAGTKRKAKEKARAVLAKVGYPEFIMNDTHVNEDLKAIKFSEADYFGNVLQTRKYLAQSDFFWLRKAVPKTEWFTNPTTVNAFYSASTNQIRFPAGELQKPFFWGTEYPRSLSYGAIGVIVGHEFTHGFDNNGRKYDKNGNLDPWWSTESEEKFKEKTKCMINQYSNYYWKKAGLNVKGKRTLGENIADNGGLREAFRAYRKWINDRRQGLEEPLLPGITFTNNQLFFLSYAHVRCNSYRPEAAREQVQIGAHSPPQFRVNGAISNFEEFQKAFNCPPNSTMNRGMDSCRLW
Experimental: The soluble form of the metallopeptidase PHEX (sPHEX) was purified to homogeneity according to the methods of Boileau and Crine (WO 00/50580). sPHEX quantity was measured with the Bradford assay (BioRad) using BSA as a standard.
sPHEX activity was determined using a fluorogenic substrate in which an increase of fluorescence was proportional to substrate conversion to products.
S3 was synthesized at Dr. Gilles Lajoie's laboratories (University of Western Ontario, Canada) by standard solid phase peptide synthesis. The fluorescent reaction product was excited at 320 nm to fluoresce at 420 nm. Fluorescence was recorded at 420 nm every five minutes over a one-hour period on a fluorescence plate reader (Perkin-Elmer, HTS-7000) to calculate the initial rate of the reaction. Typically, the reaction was carried out in 200 μl of buffer M (50 mM Mes(NaOH) pH 6.5, 150 mM NaCl) containing 100 ng of purified sPHEX and 20 μM of fluorigenic substrate to initiate the reaction. Enzymatic activity was determined by subtracting either the initial rate of substrate in buffer (solvolysis), or the typical reaction rate in which 5 mM EDTA was added prior to initiating the reaction.
sPHEX inhibitor IC50 determinations were done using the tested inhibitor at various concentrations coming from a serial dilution (usually ranging from 10^−3 M to 10^−12 M) in the reaction described above. IC50 values were calculated using the iterative four parameters non-linear regression formula from the GraphPad™ software (Prism).

First: O=C(O)C[C@H](NC(=O)[C@@H](S)Cc1ccccc1)C(=O)N[C@@H](Cc1c[nH]c2ccccc12)C(=O)N[C@@H](CO)C(=O)O [Example 116, N-[1-(1-Carboxy-2-hydroxy-ethylcarbamoyl)-2-(1H-indol-3-yl)-ethyl]-3-(2-mercapto-3-phenyl-propionylamino)-succinamic acid]
Second: O=C(O)C[C@H](NC(=O)[C@@H](S)Cc1ccccc1)C(=O)N[C@@H](Cc1c[nH]c2ccccc12)C(=O)O [Example 89, N-[1-Carboxy-2-(1H-indol-3-yl)-ethyl]-3-(2-mercapto-3-phenyl-propionylamino)-succinamic acid]
The IC50 of the first is 2.8-fold lower: 4 nM for the first, 11 nM for the second. The first is the more potent here.

Going from O=C(O)CC[C@H](NC(=O)[C@@H](S)Cc1ccccc1)C(=O)N[C@@H](Cc1c[nH]c2ccccc12)C(=O)O [Example 114] to O=C(O)C[C@H](NC(=O)[C@@H](S)Cc1ccccc1)C(=O)NCCc1c[nH]c2ccccc12 [Example 118, N-[2-(1H-indol-3-yl)l-ethyl]-3-(2-mercapto-3-phenyl-propionylamino)-succinamic acid], the IC50 falls from 320 nM to 140 nM (2.3-fold). The second is the more potent here.

First: O=C(O)CC(CC(=O)NO)C(=O)NCCc1ccc(-c2ccccn2)cc1 (centres unmarked) [Example 132, 4-Hydroxycarbamoyl-3-[2-(4-pyridin-2-yl-phenyl)-ethylcarbamoyl]-butyric acid]
Second: O=C(O)CC(CC(=O)NO)C(=O)NCCCCc1ccccc1 (centres unmarked) [Example 134, 4-Hydroxycarbamoyl-3-(4-phenyl-butylcarbamoyl)-butyric acid]
The IC50 of the first is 2.3-fold lower: 240 nM for the first, 560 nM for the second. The first is the more potent here.

Going from O=C(O)C[C@H](NC(CCc1ccccc1)P(=O)(O)O)C(=O)N[C@@H](Cc1c[nH]c2ccccc12)C(=O)O (some centres unmarked) [Example 162, N-[1-carboxy-2-(1H-indol-3-yl)-ethyl]-3-(3-phenyl-1-phosphono-propylamino)-succinic acid] to CC(C)C[C@H](S)C(=O)N[C@@H](CC(=O)O)C(=O)N[C@@H](Cc1c[nH]c2ccccc12)C(=O)O [Example 91, N-[1-Carboxy-2-(1H-indol-3-yl)-ethyl]-3-(2-mercapto-4-methyl-pentanoylamino)-succinamic acid], the IC50 falls from 9700 nM to 94 nM (100-fold).

Going from O=C(O)C[C@H](NC(=O)[C@@H](S)Cc1ccccc1)C(=O)N[C@@H](Cc1ccc(O)cc1)C(=O)O [Example 108, N-[1-Carboxy-2-(4-hydroxy-phenyl)-ethyl]-3-(2-mercapto-3-phenyl-propionylamino)-succinamic acid] to O=C(O)C[C@H](NC(=O)[C@@H](S)Cc1ccccc1)C(=O)N[C@@H](Cc1ccc(-c2ccccc2)cc1)C(=O)O [Example 110, N-(2-Biphenyl-4-yl-1-Carboxy-ethyl)-3-(2-mercapto-3-phenyl-propionylamino)-succinamic acid], the IC50 rises from 7 nM to 38 nM (5.4-fold). The first is the more potent here.

O=C(O)C[C@H](NC(=O)[C@@H](S)Cc1ccccc1)C(=O)N[C@@H](CO)C(=O)O [Example 107, N-(1-Carboxy-2-hydroxy-ethyl)-3-(2-mercapto-3-phenyl-propionylamino)-succinamic acid] showed an IC50 of 170 nM.
